Reference: patent US20250114338A1, “TETRAHYDRO-PYRIDO[3,4-b]INDOLE ESTROGEN RECEPTOR MODULATORS AND USES THEREOF” (Genentech, Inc., priority 2014, published 2025)

Tested on: ER-alpha MCF7
Test: ER-alpha MCF7 HCS EC50; stated as measured by in vitro cell proliferation assays of Examples 902 and 903
Format: cell-based
Settings: Homo sapiens, MCF7, MCF7 cells; Table 2
Source text: The CellTiter-Glo® Luminescent Cell Viability Assay is a homogeneous method to determine the number of viable cells in culture based on quantitation of the ATP present, which signals the presence of metabolically active cells. The CellTiter-Glo® Assay is designed for use with multiwell plate formats, making it ideal for automated high-throughput screening (HTS), cell proliferation and cytotoxicity assays. The homogeneous assay procedure involves adding a single reagent (CellTiter-Glo® Reagent) directly to cells cultured in serum-supplemented medium. Cell washing, removal of medium or multiple pipetting steps are not required. The Cell Titer-Glo® Luminescent Cell Viability Assay, including reagents and protocol are commercially available (Promega Corp., Madison, WI, Technical Bulletin TB288).
The assay assesses the ability of compounds to enter cells and inhibit cell proliferation. The assay principle is based on the determination of the number of viable cells present by quantitating the ATP present in a homogenous assay where addition of the Cell Titer-Glo® reagent results in cell lysis and generation of a luminescent signal through the luciferase reaction. The luminescent signal is proportional to the amount of ATP present.
Cell Culture Medium: RPMI or DMEM high glucose, 10% Fetal Bovine Serum, 2 mM L-Glutamine, P/S. Incubate O/N (overnight) at 37° C., 5% CO2.
Day 2—Add Drug to Cells, Compound Dilution, DMSO Plates (serial 1:2 for 9 points). Add 20 μl of compound at 10 mM in the 2nd column of 96 well plate. […] Add 147 μl of Media into all wells. Transfer 3 μl of DMSO+ compound from each well in the DMSO Plate to each corresponding well on Media Plate using Rapidplate® (Caliper, a Perkin-Elmer Co.). For 2 drug combination studies, transfer one drug 1.5 μl of DMSO+ compound from each well in the DMSO Plate to each corresponding well on Media Plate using Rapidplate. Then, transfer another drug 1.5 μl to the medium plate.
Drug Addition to Cells, Cell Plate (1:10 dilution): Add 6 μl of media+ compound directly to cells (54 μl of media on the cells already). Incubate 3 days at 37° C., 5% CO2 in an incubator that will not be opened often.
Day 5—Develop Plates, Thaw Cell Titer Glo Buffer at room temperature: Remove Cell Plates from 37° C. and equilibrate to room temperature for about 30 minutes. Add Cell Titer-Glo® Buffer to Cell Titer-Glo® Substrate (bottle to bottle). Add 30 μl Cell Titer-Glo® Reagent (Promega cat. #G7572) to each well of cells. Place on plate shaker for about 30 minutes. Read luminescence on Analyst HT Plate Reader (half second per well).
Cell viability assays and combination assays: Cells were seeded at 1000-2000 cells/well in 384-well plates for 16 h. On day two, nine serial 1:2 compound dilutions were made in DMSO in a 96 well plate. The compounds were further diluted into growth media using a Rapidplate® robot (Zymark Corp., Hopkinton, MA). The diluted compounds were then added to quadruplicate wells in 384-well cell plates and incubated at 37° C. and 5% CO2. After 4 days, relative numbers of viable cells were measured by luminescence using Cell Titer-Glo® (Promega) according to the manufacturer's instructions and read on a Wallac Multilabel Reader® (PerkinElmer, Foster City). EC50 values were calculated using Prism® 4.0 software (GraphPad, San Diego).
5 ul of each individual compound concentration and each control compound was transferred to the cell plate. Fulvestrant was added to control wells at a final concentration of 100 nM). DMSO was added to negative control wells (0.2% v/v).

Compound | EC50
C[C@@H]1Cc2c([nH]c3ccccc23)[C@@H](c2c(F)cc(NC3CN(CCCF)C3)cc2F)N1CC(C)(C)F [Example 145, N-(3,5-difluoro-4-((1R,3R)-2-(2-fluoro-2-methylpropyl)-3-methyl-2,3,4,9-tetrahydro-1H-pyrido[3,4-b]indol-1-yl)phenyl)-1-(3-fluoropropyl)azetidin-3-amine] | 0.096 nM
C[C@@H]1Cc2c([nH]c3ccccc23)[C@@H](c2c(F)cc(OCCN3CC(CF)C3)cc2F)N1CC1CC(F)(F)C1 [Example 146, (1R,3R)-2-[(3,3-difluorocyclobutyl)methyl]-1-[2,6-difluoro-4-[2-[3-(fluoromethyl)azetidin-1-yl]ethoxy]phenyl]-3-methyl-1,3,4,9-tetrahydropyrido[3,4-b]indole] | 10 nM
C[C@@H]1Cc2c([nH]c3ccccc23)[C@@H](c2c(F)cc(OCCN3CC(CF)C3)cc2F)N1CC(C)(C)C [Example 147, (1R,3R)-1-[2,6-difluoro-4-[2-[3-(fluoromethyl)azetidin-1-yl]ethoxy]phenyl]-2-(2,2-dimethylpropyl)-3-methyl-1,3,4,9-tetrahydropyrido[3,4-b]indole] | 0.698 nM
C[C@@H]1Cc2c([nH]c3ccccc23)[C@@H](c2c(F)cc(OCCN3CC(CF)C3)cc2F)N1C(=O)C1CCC1 [Example 148, cyclobutyl-[(1R,3R)-1-[2,6-difluoro-4-[2-[3-(fluoromethyl)azetidin-1-yl]ethoxy]phenyl]-3-methyl-1,3,4,9-tetrahydropyrido[3,4-b]indol-2-yl]methanone] | 1.47 nM
C[C@@H]1Cc2c([nH]c3ccccc23)[C@@H](c2c(F)cc(OCCN3CC(CF)C3)cc2F)N1C(=O)C1CCCC1 [Example 149, cyclopentyl-[(1R,3R)-1-[2,6-difluoro-4-[2-[3-(fluoromethyl)azetidin-1-yl]ethoxy]phenyl]-3-methyl-1,3,4,9-tetrahydropyrido[3,4-b]indol-2-yl]methanone] | 2.16 nM
C[C@H]1CCN(CCOc2cc(F)c([C@@H]3c4[nH]c5ccccc5c4C[C@@H](C)N3CC(C)(C)F)c(F)c2)C1 [Example 150, (1R,3R)-1-[2,6-difluoro-4-[2-[(3S)-3-methylpyrrolidin-1-yl]ethoxy]phenyl]-2-(2-fluoro-2-methyl-propyl)-3-methyl-1,3,4,9-tetrahydropyrido[3,4-b]indole] | 0.483 nM
C[C@H](COc1cc(F)c([C@@H]2c3[nH]c4ccccc4c3C[C@@H](C)N2CC(C)(C)F)c(F)c1)N1CCCC1 [Example 151, (1R,3R)-1-[2,6-difluoro-4-[(2R)-2-pyrrolidin-1-ylpropoxy]phenyl]-2-(2-fluoro-2-methyl-propyl)-3-methyl-1,3,4,9-tetrahydropyrido[3,4-b]indole] | 0.156 nM
CCCN1CC(COc2cc(F)c([C@@H]3c4[nH]c5ccccc5c4C[C@@H](C)N3CC(C)(C)F)c(F)c2)C1 [Example 152, (1R,3R)-1-[2,6-difluoro-4-[(1-propylazetidin-3-yl)methoxy]phenyl]-2-(2-fluoro-2-methyl-propyl)-3-methyl-1,3,4,9-tetrahydropyrido[3,4-b]indole] | 0.362 nM
C[C@@H]1Cc2c([nH]c3ccccc23)[C@@H](c2c(F)cc(OCCN3CC(CF)C3)cc2F)N1CC1(F)CCC1 [Example 153, (1R,3R)-1-[2,6-difluoro-4-[2-[3-(fluoromethyl)azetidin-1-yl]ethoxy]phenyl]-2-[(1-fluorocyclobutyl)methyl]-3-methyl-1,3,4,9-tetrahydropyrido[3,4-b]indole] | 0.221 nM
C[C@@H]1Cc2c([nH]c3ccccc23)[C@@H](c2c(F)cc(OCCN3CC(CF)C3)cc2F)N1C[C@](C)(F)CO [Example 154, (S)-3-((1R,3R)-1-(2,6-difluoro-4-(2-(3-(fluoromethyl)azetidin-1-yl)ethoxy)phenyl)-3-methyl-3,4-dihydro-1H-pyrido[3,4-b]indol-2(9H)-yl)-2-fluoro-2-methylpropan-1-ol] | 0.0333 nM
